Reference: ChEMBL document CHEMBL5649169 (ChemMedChem, 2018)
pKd: −log10 of the molar value.

Assays:
[1] = biological target: Glycogen phosphorylase, liver form (Homo sapiens) (UniProt P06737); note: assay method not described here
[2] = biological target: Integrin beta-4 (Homo sapiens) (UniProt P16144); note: assay method not described here
[3] = biological target: Exosome RNA helicase MTR4 (Homo sapiens) (UniProt P42285); note: assay method not described here
[4] = biological target: Calpain-1 catalytic subunit (Homo sapiens) (UniProt P07384); note: assay method not described here
[5] = biological target: Desmoplakin (Homo sapiens) (UniProt P15924); note: assay method not described here
[6] = biological target: Programmed cell death protein 6 (Homo sapiens) (UniProt O75340); note: assay method not described here
Programmed cell death protein 6 (Homo sapiens), sequence (O75340 whole entry): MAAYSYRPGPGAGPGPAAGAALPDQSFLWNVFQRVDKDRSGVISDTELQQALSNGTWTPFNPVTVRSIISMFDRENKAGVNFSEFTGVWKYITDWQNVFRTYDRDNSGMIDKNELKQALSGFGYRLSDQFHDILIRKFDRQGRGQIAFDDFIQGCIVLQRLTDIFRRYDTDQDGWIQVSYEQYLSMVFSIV

[7] = biological target: NADH dehydrogenase [ubiquinone] iron-sulfur protein 3, mitochondrial (Homo sapiens) (UniProt O75489); note: assay method not described here
[8] = biological target: Nuclear pore complex protein Nup93 (Homo sapiens) (UniProt Q8N1F7); note: assay method not described here
[9] = biological target: AP-3 complex subunit sigma-1 (Homo sapiens) (UniProt Q92572); note: assay method not described here
AP-3 complex subunit sigma-1 (Homo sapiens), sequence (Q92572 whole entry, one chain of several): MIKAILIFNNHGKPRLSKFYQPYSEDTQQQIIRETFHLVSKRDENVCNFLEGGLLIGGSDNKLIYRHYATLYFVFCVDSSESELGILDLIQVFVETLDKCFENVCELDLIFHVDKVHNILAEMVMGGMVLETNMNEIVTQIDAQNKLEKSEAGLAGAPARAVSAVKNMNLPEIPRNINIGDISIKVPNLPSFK

[10] = biological target: NADH dehydrogenase [ubiquinone] 1 alpha subcomplex assembly factor 4 (Homo sapiens) (UniProt Q9P032); note: assay method not described here
NADH dehydrogenase [ubiquinone] 1 alpha subcomplex assembly factor 4 (Homo sapiens), sequence (Q9P032 whole entry, one chain of several): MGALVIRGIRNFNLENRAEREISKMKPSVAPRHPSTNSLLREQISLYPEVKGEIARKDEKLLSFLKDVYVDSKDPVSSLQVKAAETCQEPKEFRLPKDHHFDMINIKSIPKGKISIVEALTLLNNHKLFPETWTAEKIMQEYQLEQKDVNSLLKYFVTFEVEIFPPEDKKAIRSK

[11] = biological target: Serine/threonine-protein phosphatase PGAM5, mitochondrial (Homo sapiens) (UniProt Q96HS1); note: assay method not described here
[12] = biological target: Serine/threonine-protein kinase N1 (Homo sapiens) (UniProt Q16512); note: assay method not described here
Serine/threonine-protein kinase N1 (Homo sapiens), sequence (Q16512 2-942 limits assumed): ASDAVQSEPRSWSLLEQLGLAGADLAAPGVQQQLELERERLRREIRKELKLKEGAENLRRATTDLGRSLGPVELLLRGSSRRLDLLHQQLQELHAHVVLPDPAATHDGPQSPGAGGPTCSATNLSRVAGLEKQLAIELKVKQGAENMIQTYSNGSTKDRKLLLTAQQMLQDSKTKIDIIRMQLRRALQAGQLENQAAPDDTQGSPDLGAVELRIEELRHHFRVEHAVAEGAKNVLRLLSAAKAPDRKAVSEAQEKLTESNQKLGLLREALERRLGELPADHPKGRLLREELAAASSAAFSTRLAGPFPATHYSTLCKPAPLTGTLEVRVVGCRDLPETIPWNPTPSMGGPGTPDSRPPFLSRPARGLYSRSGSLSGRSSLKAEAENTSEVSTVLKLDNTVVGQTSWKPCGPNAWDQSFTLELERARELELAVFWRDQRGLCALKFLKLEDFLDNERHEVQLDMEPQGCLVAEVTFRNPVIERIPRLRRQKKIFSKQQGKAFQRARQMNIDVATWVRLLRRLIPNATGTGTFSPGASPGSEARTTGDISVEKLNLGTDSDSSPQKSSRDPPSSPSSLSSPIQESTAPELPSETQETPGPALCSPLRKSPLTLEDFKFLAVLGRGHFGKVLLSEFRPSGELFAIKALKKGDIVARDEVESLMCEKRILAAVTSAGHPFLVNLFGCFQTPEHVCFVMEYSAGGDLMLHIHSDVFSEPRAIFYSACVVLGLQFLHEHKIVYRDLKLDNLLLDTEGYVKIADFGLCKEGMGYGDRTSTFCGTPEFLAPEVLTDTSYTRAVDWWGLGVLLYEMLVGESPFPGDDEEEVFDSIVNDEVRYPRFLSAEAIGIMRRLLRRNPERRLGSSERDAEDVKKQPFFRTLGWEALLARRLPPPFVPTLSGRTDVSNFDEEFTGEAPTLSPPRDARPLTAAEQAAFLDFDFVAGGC

[13] = biological target: Cilia- and flagella-associated protein 410 (Homo sapiens) (UniProt O43822); note: assay method not described here
Cilia- and flagella-associated protein 410 (Homo sapiens), sequence (O43822 whole entry): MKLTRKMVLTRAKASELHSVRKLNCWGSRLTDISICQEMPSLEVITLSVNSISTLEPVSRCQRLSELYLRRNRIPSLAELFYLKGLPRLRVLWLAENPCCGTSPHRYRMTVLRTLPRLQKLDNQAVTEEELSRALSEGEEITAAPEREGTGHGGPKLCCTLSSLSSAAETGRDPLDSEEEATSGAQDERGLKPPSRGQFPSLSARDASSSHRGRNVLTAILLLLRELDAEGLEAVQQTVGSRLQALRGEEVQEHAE

[14] = biological target: Tetratricopeptide repeat protein 14 (Homo sapiens) (UniProt Q96N46); note: assay method not described here
[15] = biological target: Proto-oncogene tyrosine-protein kinase Src (Homo sapiens) (UniProt P12931); note: assay method not described here
[16] = biological target: Mitogen-activated protein kinase 9 (Homo sapiens) (UniProt P45984); note: assay method not described here
[17] = biological target: Serine/threonine-protein kinase MRCK beta (Homo sapiens) (UniProt Q9Y5S2); note: assay method not described here
[18] = biological target: Cyclin-dependent kinase 12 (Homo sapiens) (UniProt Q9NYV4); note: assay method not described here
Cyclin-dependent kinase 12 (Homo sapiens), sequence (Q9NYV4 whole entry, looked up): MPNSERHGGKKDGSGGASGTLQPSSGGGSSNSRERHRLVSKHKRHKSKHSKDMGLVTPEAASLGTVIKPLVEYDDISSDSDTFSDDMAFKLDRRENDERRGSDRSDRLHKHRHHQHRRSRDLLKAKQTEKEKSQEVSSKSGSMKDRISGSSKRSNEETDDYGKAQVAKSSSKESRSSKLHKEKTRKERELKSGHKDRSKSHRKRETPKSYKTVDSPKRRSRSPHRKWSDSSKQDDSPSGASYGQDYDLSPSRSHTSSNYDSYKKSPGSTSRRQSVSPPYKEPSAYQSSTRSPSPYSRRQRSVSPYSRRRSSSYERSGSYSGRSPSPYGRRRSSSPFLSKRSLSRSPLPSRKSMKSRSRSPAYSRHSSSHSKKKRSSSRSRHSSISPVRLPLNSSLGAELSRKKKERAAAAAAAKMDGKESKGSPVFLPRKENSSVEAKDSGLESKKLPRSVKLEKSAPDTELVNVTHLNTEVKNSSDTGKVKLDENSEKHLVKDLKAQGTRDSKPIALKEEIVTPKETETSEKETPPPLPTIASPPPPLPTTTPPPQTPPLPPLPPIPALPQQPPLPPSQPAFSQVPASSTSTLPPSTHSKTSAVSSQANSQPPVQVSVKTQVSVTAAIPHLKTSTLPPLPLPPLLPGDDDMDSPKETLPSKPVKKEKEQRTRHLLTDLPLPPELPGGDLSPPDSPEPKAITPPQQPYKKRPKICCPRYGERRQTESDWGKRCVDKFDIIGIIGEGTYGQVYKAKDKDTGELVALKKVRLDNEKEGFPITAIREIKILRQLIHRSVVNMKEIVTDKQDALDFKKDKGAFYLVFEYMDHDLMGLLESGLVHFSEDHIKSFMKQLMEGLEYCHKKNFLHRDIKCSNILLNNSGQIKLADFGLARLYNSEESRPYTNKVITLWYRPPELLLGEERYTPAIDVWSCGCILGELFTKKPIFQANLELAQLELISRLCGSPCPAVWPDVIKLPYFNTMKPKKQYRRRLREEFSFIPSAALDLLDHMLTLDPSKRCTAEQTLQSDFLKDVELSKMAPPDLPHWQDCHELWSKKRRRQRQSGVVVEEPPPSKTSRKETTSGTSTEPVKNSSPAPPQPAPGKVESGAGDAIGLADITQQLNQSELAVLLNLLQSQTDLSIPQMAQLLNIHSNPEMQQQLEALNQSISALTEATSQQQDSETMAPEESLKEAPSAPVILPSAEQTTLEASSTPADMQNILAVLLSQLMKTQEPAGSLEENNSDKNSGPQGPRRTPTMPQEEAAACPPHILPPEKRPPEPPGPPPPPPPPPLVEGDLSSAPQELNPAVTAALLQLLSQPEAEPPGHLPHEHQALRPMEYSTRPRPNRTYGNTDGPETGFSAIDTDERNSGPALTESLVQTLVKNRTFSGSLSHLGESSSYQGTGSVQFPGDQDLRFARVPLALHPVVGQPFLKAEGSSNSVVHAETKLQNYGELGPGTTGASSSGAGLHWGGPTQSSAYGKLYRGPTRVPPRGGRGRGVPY

[19] = biological target: Misshapen-like kinase 1 (Homo sapiens) (UniProt Q8N4C8); note: assay method not described here
[20] = biological target: Growth factor receptor-bound protein 2 (Homo sapiens) (UniProt P62993); note: assay method not described here
[21] = biological target: Translation initiation factor eIF2B subunit delta (Homo sapiens) (UniProt Q9UI10); note: assay method not described here
[22] = biological target: Deoxyribose-phosphate aldolase (Homo sapiens) (UniProt Q9Y315); note: assay method not described here
[23] = biological target: Galectin-3-binding protein (Homo sapiens) (UniProt Q08380); note: assay method not described here
[24] = biological target: Ribosomal protein S6 kinase alpha-1 (Homo sapiens) (UniProt Q15418); note: assay method not described here
[25] = biological target: Iron-sulfur clusters transporter ABCB7, mitochondrial (Homo sapiens) (UniProt O75027); note: assay method not described here
[26] = biological target: Myosin light chain kinase, smooth muscle (Homo sapiens) (UniProt Q15746); note: assay method not described here
[27] = biological target: Coatomer subunit beta (Homo sapiens) (UniProt P53618); note: assay method not described here
[28] = biological target: Staphylococcal nuclease domain-containing protein 1 (Homo sapiens) (UniProt Q7KZF4); note: assay method not described here
[29] = biological target: Crk-like protein (Homo sapiens) (UniProt P46109); note: assay method not described here
[30] = biological target: Synaptogyrin-2 (Homo sapiens) (UniProt O43760); note: assay method not described here
[31] = biological target: MMS19 nucleotide excision repair protein homolog (Homo sapiens) (UniProt Q96T76); note: assay method not described here
[32] = biological target: Tyrosine-protein kinase ABL1 (Homo sapiens, UniProt P00519); conditions: read-out: Kd(app)
[33] = biological target: Large ribosomal subunit protein eL38 (Homo sapiens) (UniProt P63173); note: assay method not described here
[34] = biological target: Mitotic checkpoint protein BUB3 (Homo sapiens) (UniProt O43684); note: assay method not described here
[35] = biological target: Actin-related protein 2/3 complex subunit 3 (Homo sapiens) (UniProt O15145); note: assay method not described here
[36] = biological target: Derlin-1 (Homo sapiens) (UniProt Q9BUN8); note: assay method not described here
[37] = biological target: Centromere/kinetochore protein zw10 homolog (Homo sapiens) (UniProt O43264); note: assay method not described here
[38] = biological target: Ceramide synthase 2 (Homo sapiens) (UniProt Q96G23); note: assay method not described here
[39] = biological target: Clathrin light chain A (Homo sapiens) (UniProt P09496); note: assay method not described here
[40] = biological target: Bone morphogenetic protein receptor type-2 (Homo sapiens) (UniProt Q13873); note: assay method not described here
[41] = biological target: Carnitine O-palmitoyltransferase 1, liver isoform (Homo sapiens) (UniProt P50416); note: assay method not described here
[42] = biological target: Ubiquitin carboxyl-terminal hydrolase 7 (Homo sapiens) (UniProt Q93009); note: assay method not described here
[43] = biological target: Cell division cycle 7-related protein kinase (Homo sapiens) (UniProt O00311); note: assay method not described here
[44] = biological target: 14-3-3 protein epsilon (Homo sapiens) (UniProt P62258); note: assay method not described here
[45] = biological target: Annexin A7 (Homo sapiens) (UniProt P20073); note: assay method not described here
[46] = biological target: Oligosaccharyltransferase complex subunit OSTC (Homo sapiens) (UniProt Q9NRP0); note: assay method not described here

Integrin beta-4 (Homo sapiens), sequence (P16144 whole entry): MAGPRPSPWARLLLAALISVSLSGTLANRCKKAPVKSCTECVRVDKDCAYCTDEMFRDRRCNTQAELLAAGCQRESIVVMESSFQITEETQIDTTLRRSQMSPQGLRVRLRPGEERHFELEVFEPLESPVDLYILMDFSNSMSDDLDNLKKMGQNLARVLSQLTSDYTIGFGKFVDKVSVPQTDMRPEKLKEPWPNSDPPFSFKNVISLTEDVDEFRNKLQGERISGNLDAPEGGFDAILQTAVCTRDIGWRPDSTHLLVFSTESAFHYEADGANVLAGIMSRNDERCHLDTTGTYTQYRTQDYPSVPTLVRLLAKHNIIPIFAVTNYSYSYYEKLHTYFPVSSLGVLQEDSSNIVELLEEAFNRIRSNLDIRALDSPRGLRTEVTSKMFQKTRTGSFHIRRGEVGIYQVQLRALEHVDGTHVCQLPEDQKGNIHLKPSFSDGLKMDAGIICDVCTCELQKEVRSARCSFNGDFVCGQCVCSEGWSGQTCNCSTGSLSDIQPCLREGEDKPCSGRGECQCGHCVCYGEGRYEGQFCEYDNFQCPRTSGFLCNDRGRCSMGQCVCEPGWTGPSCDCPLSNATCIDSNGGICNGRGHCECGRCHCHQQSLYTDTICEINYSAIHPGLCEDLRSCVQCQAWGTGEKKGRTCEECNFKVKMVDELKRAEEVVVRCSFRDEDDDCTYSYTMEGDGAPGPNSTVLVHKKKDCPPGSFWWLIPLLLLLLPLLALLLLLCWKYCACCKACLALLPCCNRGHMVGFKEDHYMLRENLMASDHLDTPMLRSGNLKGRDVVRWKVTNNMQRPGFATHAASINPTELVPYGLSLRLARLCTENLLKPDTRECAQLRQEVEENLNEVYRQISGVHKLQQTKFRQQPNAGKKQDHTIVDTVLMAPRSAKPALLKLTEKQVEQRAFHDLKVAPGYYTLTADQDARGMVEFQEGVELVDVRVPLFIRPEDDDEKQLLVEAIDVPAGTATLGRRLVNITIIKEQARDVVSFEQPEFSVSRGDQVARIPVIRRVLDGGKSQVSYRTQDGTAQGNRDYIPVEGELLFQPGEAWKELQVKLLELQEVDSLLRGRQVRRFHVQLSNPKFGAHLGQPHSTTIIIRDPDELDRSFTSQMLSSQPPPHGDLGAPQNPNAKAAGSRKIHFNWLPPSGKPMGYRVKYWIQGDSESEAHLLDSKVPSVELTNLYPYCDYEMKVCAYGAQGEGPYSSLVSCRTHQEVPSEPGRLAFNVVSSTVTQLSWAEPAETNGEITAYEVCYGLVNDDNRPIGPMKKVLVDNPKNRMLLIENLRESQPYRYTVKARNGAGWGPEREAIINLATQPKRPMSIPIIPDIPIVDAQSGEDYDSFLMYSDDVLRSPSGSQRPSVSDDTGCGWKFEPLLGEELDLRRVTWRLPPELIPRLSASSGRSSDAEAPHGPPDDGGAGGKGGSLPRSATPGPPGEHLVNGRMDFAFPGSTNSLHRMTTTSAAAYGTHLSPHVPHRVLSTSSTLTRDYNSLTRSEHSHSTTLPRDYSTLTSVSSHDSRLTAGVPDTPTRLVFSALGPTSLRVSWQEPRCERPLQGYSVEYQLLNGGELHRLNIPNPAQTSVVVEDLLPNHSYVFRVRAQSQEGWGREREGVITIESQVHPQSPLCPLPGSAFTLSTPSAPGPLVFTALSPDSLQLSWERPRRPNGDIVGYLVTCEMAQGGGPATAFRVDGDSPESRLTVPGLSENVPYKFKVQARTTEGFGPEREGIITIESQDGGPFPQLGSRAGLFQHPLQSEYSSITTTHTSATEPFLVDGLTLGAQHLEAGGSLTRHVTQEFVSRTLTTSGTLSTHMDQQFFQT

Compound `Cc1ccc(C(=O)Nc2cccc(C(F)(F)F)c2)cc1Nc1nc(-c2cccnc2)nc2c1cnn2C` has an ED50 [1] of 2.39 nM, an ED50 [2] of 3.51 µM and an ED50 [3] of 0.000385 mM. The ED50 [4] was 3520 nM, the ED50 [5] was 22.3 µM and the ED50 [6] was 1360 nM. It also gave an ED50 [7] of 4770 nM, an ED50 [8] of 3250 nM and an ED50 [9] of 116 µM. For the same compound, the ED50 [10] was 1.5 nM, the ED50 [11] was 0.809 µM and the ED50 [12] was 626 nM. It also gave an ED50 [13] of 46.8 µM, an ED50 [14] of 1900 nM and an ED50 [15] of 3.6 µM. The ED50 [16] was 0.0588 µM, the ED50 [17] was 641 nM and the ED50 [18] was 1.03 nM. It also gave an ED50 [19] of 6.35 µM, an ED50 [20] of 53.4 nM and an ED50 [21] of 9.56 µM. The ED50 [22] was 3140 nM, the ED50 [23] was 9.93 µM and the ED50 [24] was 7.62 µM. For the same compound, the ED50 [25] was 62.2 nM, the ED50 [26] was 247 nM and the ED50 [27] was 813 nM. It also gave an ED50 [28] of 23.6 µM, an ED50 [29] of 0.0843 µM and an ED50 [30] of 44.4 µM. For the same compound, the ED50 [31] was 970 nM, the pKd [32] was 6.04 and the ED50 [33] was 8.36 µM. For the same compound, the ED50 [34] was 5.28 nM, the ED50 [35] was 3470 nM and the ED50 [36] was 13.9 µM. It also gave an ED50 [37] of 2900 nM, an ED50 [38] of 68.3 nM and an ED50 [39] of 550 nM. It also gave an ED50 [40] of 3020 nM, an ED50 [41] of 1.4 nM and an ED50 [42] of 6.16 nM. It also gave an ED50 [43] of 1.27 nM, an ED50 [44] of 6.15 µM and an ED50 [45] of 21.9 µM. The ED50 [46] was 15.6 µM.
Work on `Cc1ccc(C(=O)Nc2cccc(C(F)(F)F)c2)cc1Nc1nc(-c2cccnc2)nc2nn(C)cc12` yielded an ED50 [1] of 5790 nM, an ED50 [2] of 825 µM and an ED50 [3] of 4.33 mM. For the same compound, the ED50 [4] was 161 nM, the ED50 [5] was 0.288 µM and the ED50 [6] was 1040 nM. For the same compound, the ED50 [7] was 2 nM, the ED50 [8] was 1550 nM and the ED50 [9] was 2.47 µM. The ED50 [10] was 1820 nM, the ED50 [11] was 7.34 µM and the ED50 [12] was 245 nM. For the same compound, the ED50 [13] was 0.574 µM, the ED50 [14] was 2320 nM and the ED50 [15] was 3.43 µM. It also gave an ED50 [16] of 13.7 µM, an ED50 [17] of 8.92 nM and an ED50 [18] of 435 nM. For the same compound, the ED50 [19] was 36.4 µM, the ED50 [20] was 821 nM and the ED50 [21] was 0.308 µM. The ED50 [22] was 2450 nM, the ED50 [23] was 0.0814 µM and the ED50 [24] was 1.79 µM. It also gave an ED50 [25] of 28.9 nM, an ED50 [26] of 0.38 nM and an ED50 [27] of 928 nM. For the same compound, the ED50 [28] was 0.57 µM, the ED50 [29] was 10.2 µM and the ED50 [30] was 1.91 µM. It also gave an ED50 [31] of 1300 nM, a pKd [32] of 6.14 and an ED50 [33] of 0.0274 µM. It also gave an ED50 [34] of 67.9 nM, an ED50 [35] of 66.6 nM and an ED50 [36] of 28 µM. The ED50 [37] was 54.4 nM, the ED50 [38] was 3600 nM and the ED50 [39] was 65.9 nM. For the same compound, the ED50 [40] was 17.4 nM, the ED50 [41] was 67.6 nM and the ED50 [42] was 49 nM. The ED50 [43] was 869 nM, the ED50 [44] was 0.0477 µM and the ED50 [45] was 0.0697 µM. It also gave an ED50 [46] of 1.15 µM.
